Experimental data: patent US7563796B2, “Diphenylimidazopyrimidines as inhibitors of β-secretase” (Wyeth, priority 2005, dated 2009)
Counter-ions that a name gives are not always drawn.

Experiments:
human BACE1 = human BACE1 (Homo sapiens, UniProt P56817); experiment: Fluorescent kinetic assay, BACE1 inhibition (substrate WABC-6 cleavage); type: biochemical; details: for IC50: 10 nM enzyme, 25 μM substrate WABC-6, pH 4.5, room temperature; for inhibition at 25 µM: read-out: BACE1 % inhibition at 25 μM, at 25 μM inhibitor
Method: Evaluation of BACE-1 Binding Affinity of Test Compounds
1. Fluorescent Kinetic Assays
Dilution and mixing steps: total reaction volume: 100 μL
100 μM substrate dilution in 1X PBS was prepared, and
Fluorescence Readings: Readings at λex 320 nm and λem 420 nm are taken every 40 sec for 30 min at room temperature and the linear slope for substrate cleavage rate (vi) determined.

Chain of human BACE1 (P56817 46-501): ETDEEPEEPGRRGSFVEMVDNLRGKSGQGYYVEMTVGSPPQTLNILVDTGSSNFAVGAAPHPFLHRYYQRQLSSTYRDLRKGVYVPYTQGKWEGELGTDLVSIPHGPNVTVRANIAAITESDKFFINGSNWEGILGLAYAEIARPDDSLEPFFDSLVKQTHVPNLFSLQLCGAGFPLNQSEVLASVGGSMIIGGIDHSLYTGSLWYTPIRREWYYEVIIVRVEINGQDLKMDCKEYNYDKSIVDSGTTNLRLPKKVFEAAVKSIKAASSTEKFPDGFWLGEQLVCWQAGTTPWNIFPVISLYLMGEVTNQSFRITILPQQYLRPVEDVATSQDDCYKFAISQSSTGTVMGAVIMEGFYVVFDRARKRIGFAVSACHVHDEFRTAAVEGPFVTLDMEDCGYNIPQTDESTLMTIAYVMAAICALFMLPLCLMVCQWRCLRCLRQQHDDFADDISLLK

| IC50 (human BACE1) [µM] | melting point [°C] | SMILES | also measured |
| --- | --- | --- | --- |
| 0.3 | – | CCCOc1cccc(C2(c3ccc(OC)c(C)c3)N=C(N)N3CCCN=C32)c1 (stereo not shown) [Example 9, 8-(4-Methoxy-3-methylphenyl)-8-(3-propoxyphenyl)-2,3,4,8-tetrahydroimidazo[1,5-a]pyrimidin-6-amine] | – |
| 1.43 | 75 to 79 | CCCc1cccc(C2(c3ccc(OC(F)(F)F)cc3)N=C(N)N3CCCN=C32)c1 (stereo not shown) [Example 14, 8-(3-Propyl-phenyl)-8-(4-trifluoromethoxy-phenyl)-2,3,4,8-tetrahydro-imidazo[1,5-a]pyrimidin-6-ylamine] | – |
| – | 148 to 150 | CCC(=O)Nc1cccc(C2(c3ccc(OC(F)(F)F)cc3)N=C(N)N3CCCN=C32)c1 (stereo not shown) (as salt: hydrochloride) [Example 16, N-{3-[6-Amino-8-(4-trifluoromethoxy-phenyl)-2,3,4,8-tetrahydroimidazo[1,5-a]pyrimidin-8-yl]-phenyl}-propionamide hydrochloride] | – |
| – | 89 to 111 | C=CCc1cccc(C2(c3ccc(OC(F)(F)F)cc3)N=C(N)N3CCCN=C32)c1 (stereo not shown) [Example 13, 8-(3-Allylphenyl)-8-(4-trifluoromethoxyphenyl)-2,3,4,8-tetrahydro-imidazo[1,5-a]pyrimidin-6-ylamine] | inhibition at 5 µM (human BACE1; read-out: BACE1 % inhibition at 5 μM, at 5 μM inhibitor): 53% |
| 0.4 | – | CCCOc1cccc(C2(c3ccc(OC)c(C)c3)N=C(N)N3CCN=C32)c1 (stereo not shown) [Example 8, 7-(4-Methoxy-3-methylphenyl)-7-(3-propoxyphenyl)-2,7-dihydro-3H-imidazo[1.5-a]imidazol-5-amine] | – |
| 8.2 | 152 | NC1=NC(c2ccccc2)(c2cccc(Cc3ccc(F)cc3)c2)C2=NCCCN12 (stereo not shown) [Example 5, 8-[3-(4-Fluorobenzyl)phenyl]-8-phenyl-2,3,4,8-tetrahydroimidazo[1,5-a]pyrimidin-6-amine] | – |
| 7.1 | 132 | COc1ccc(Cc2cccc(C3(c4ccccc4)N=C(N)N4CCCN=C43)c2)cc1 (stereo not shown) [Example 4, 8-[3-(4-Methoxybenzyl)phenyl]-8-phenyl-2,3,4,8-tetrahydroimidazo[1,5-a]pyrimidin-6-amine] | – |
| – | – | NC1=NC(c2ccccc2)(c2cccc(C(F)(F)F)c2)C2=NCCCN12 (stereo not shown) [Example 6, 8-Phenyl-8-[3-(trifluoromethyl)phenyl]-2,3,4,8-tetrahydroimidazo[1,5-a]pyrimidin-6-amine] | inhibition at 25 µM (human BACE1): 48% |
| – | 129 to 136 | CCNC(=O)c1cccc(C2(c3ccc(OC(F)(F)F)cc3)N=C(N)N3CCCN=C32)c1 (stereo not shown) [Example 15, 3-[6-Amino-8-(4-trifluoromethoxy-phenyl)-2,3,4,8-tetrahydroimidazo[1,5-a]pyrimidin-8-yl]-N-ethyl-benzamide] | inhibition at 0.5 µM (human BACE1; read-out: BACE1 % inhibition at 0.5 μM, at 0.5 μM inhibitor): 40% |
| 4.7 | 165 | NC1=NC(c2ccccc2)(c2cccc(Oc3ccc(F)cc3)c2)C2=NCCCN12 (stereo not shown) [Example 3, 8-[3-(4-Fluorophenoxy)phenyl]-8-phenyl-2,3,4,8-tetrahydroimidazo[1,5-a]pyrimidin-6-amine] | – |
| – | – | COc1cccc(C2(c3ccccc3)N=C(N)N3CCCN=C32)c1 (stereo not shown) [Example 7, 8-(3-Methoxyphenyl)-8-phenyl-2,3,4,8-tetrahydroimidazo[1,5-a]pyrimidin-6-amine] | inhibition at 25 µM (human BACE1): 49% |
| 5.3 | 80 | NC1=NC(c2ccccc2)(c2cccc(Cc3ccccc3)c2)C2=NCCCN12 (stereo not shown) [Example 2, 8-(3-Benzylphenyl)-8-phenyl-2,3,4,8-tetrahydroimidazol[1,5-a]pyrimidin-6-amine] | – |
| 1.1 | – | CCCOc1cccc(C2(c3ccc(OC)c(C)c3)N=C(N)N3CC(C)(C)CN=C32)c1 (stereo not shown) [Example 10, 8-(4-Methoxy-3-methylphenyl)-3,3-dimethyl-8-(3-propoxyphenyl)-2,3,4,8-tetrahydroimidazo[1,5-a]pyrimidin-6-amine] | – |
| – | – | CCC(=O)Nc1cccc(C2(c3ccc(OC(F)(F)F)cc3)N=C(N)N3CCCN=C32)c1 (stereo not shown) [Example 16, N-{3-[6-Amino-8-(4-trifluoromethoxy-phenyl)-2,3,4,8-tetrahydroimidazo[1,5-a]pyrimidin-8-yl]-phenyl}-propionamide hydrochloride] | inhibition at […] (human BACE1; read-out: BACE1 % inhibition at […], at 2.5 μM inhibitor): 43% |
| 30 | 139 | CC(C)(C)c1ccc(C2(c3ccccc3)N=C(N)N3CCCN=C32)cc1 (stereo not shown) [Example 1, 8-(4-tert-Butylphenyl)-8-phenyl-2,3,4,8-tetrahydroimidazol[1,5-a]pyrimidin-6-amine] | – |
| 0.21 | 65 to 77 | NC1=NC(c2ccc(OC(F)(F)F)cc2)(c2cccc(CCC3CC3)c2)C2=NCCCN12 (stereo not shown) [Example 12, 8-[3-(2-Cyclopropyl-ethyl)-phenyl]-8-(4-trifluoromethoxy-phenyl)-2,3,4,8-tetrahydro-imidazo[1,5-a]pyrimidin-6-ylamine] | – |
